Reference: patent US8580231B2, “Compositions and methods comprising magnetic resonance contrast agents” (Northwestern University, priority 2008, dated 2013)
Entries after “also recorded” stand apart in the source; their conditions may differ. Marks after values point to notes of the source that are not given here.

How the values were obtained:
[1] = Biodistribution study (Gd(III) in organs by ICP-MS); type: in vivo, mouse; conditions: mice, organs harvested 30 minute to 24 hour
[2] = tested on: PR(+) T47D and PR(−) MDA-MB-231 xenografted tumors; experiment: In vivo MR imaging of xenografted nude mice (contrast-to-noise ratio); design: species or system mouse; conditions: for change in tumor CNR over preinjection levels: 2 and 6 h postinjection; for change in tumor CNR over preinjection levels / CNR of PR(+) tumor compared to PR(−) tumor: intraperitoneal; for CNR of PR(+) tumor compared to PR(−) tumor: 0.15 mmGd/kg in DMSO
Description: Female Balb/C athymic nude mice were acquired from Harlan (Indianapolis, Ind.) and housed under pathogen free conditions. All animal studies were conducted at Northwestern University in accordance with the National Institutes of Health Guide for the Care and Use of Laboratory Animals and established institutional animal use and care protocols. Due to low circulating estradiol levels in nude mice, a 17β-estradiol pellet (Innovative Research of America, Sarasota, FA, 70-day release, 0.72 mg/pellet) was implanted subcutaneously in the nape of the neck to ensure growth of estrogen-dependent T47D cells. Two to seven days later, T47D and MDA-MB-231 ((1−2)×10^6) cells were suspended in Matrigel (1:1 volume) and injected subcutaneously into the rear flank (T47D cells on the right side and MDA-MB-231 cells on the left). Mice were monitored for tumor growth every two to three days after injection of cells. Mice were imaged two to three weeks after xenografting when tumors were palpable with a minimum weight of 20 mg (determined after tumor removal postimaging).
Xenografted nude mice were injected intraperitoneally (n=1 per compound) with each agent (0.15 mmGd/kg) dissolved in 50 μL, DMSO. During imaging, mice were maintained under anesthesia (1-3% isoflurane) but were allowed to wake up and recover between imaging time points. Tubing containing heated water was positioned under the mouse to keep a constant body temperature. All MR imaging was performed on a 89 mm bore size PharmaScan 7.05 T MR imager fitted with shielded gradient coils (Bruker BioSpin, Billerica, Mass., USA) using a RF RES 300 1H 089/038 quadrature transmit receive volume coil (Bruker BioSpin, Billerica, Mass., USA). […] Images were analyzed using ImageJ. Contrast-to-noise ratio (CNR) was calculated using the equation CNR=(SITissue−SImuscle)/σnoise where SITumor is the signal intensity in the tumor, SIMuscle is the signal intensity in the muscle, and σnoise is the standard deviation of the noise. CNRs were averaged over two to three axial slices in which the tumors were clearly demarcated.
To determine whether the water-soluble progesterone-conjugated agents would increase the contrast-to-noise ratio (CNR) of PR(+) tumors relative to PR(−) tumors in vivo, athymic nude mice with PR(+) and PR(−) xenografted tumors were injected intraperitoneally with 1a, 2a, or 3a dissolved in DMSO and imaged at 2 and 6 h postinjection. Intraperitoneal injection was chosen over subcutaneous injection because it yielded more consistent results in previous studies, and the parent compound, ProGlo, has been more extensively studied for its biodistribution after intraperitoneal injection. (19) In addition, while these agents are water-soluble, they were dissolved in DMSO to compare back to previous in vivo imaging with the insoluble ProGlo and the control agent 4a.(19)

[3] = tested on: PR(+) (T47D) human breast cancer cells; experiment: Cellular uptake studies (Example 17), PR(+) cells; type: cell-based; conditions: 0.125 mM for 1, 4, 10, 24 h or 0.25-2 mM for 4 h
Description: Contrast agents were dissolved in the appropriate medium (containing stripped FBS) for each cell line (T47D and MDA-MB-231) at concentrations of 2, 1, 0.5, 0.25, and 0.125 mM of contrast agent. For concentration-dependent cellular uptake, cells were incubated with 2, 1, 0.5, and 0.25 mM of each contrast agent for 4 h. For the time dependent cellular uptake, cells were incubated with 0.125 mM contrast agent for 1, 4, 10, and 24 h. After incubation, the media was removed, and the cells were rinsed twice with PBS and trypsinized. An aliquot was used for cell counting and the remaining portion was analyzed for Gd(III) content by ICP-MS. Each condition was done in triplicate.
To determine the cell permeability of the compounds, PR(+) (T47D) and PR(−) (MDA-MB-231) human breast cancer cells were incubated with 1a, 2a, 3a, and 4a. Time- and concentration-dependent experiments were performed to identify the optimal dose and incubation times of the agents (FIG. 16).

[4] = target: T1, progesterone receptor A ligand binding domain (amino acids 675-933) fused to GST (PR-LBD-GST) (Homo sapiens, UniProt P06401); experiment: Receptor binding to nPR (fluorescence polarization, Example 17)
T1 construct: purchased Invitrogen
T1 sequence (P06401 675-933): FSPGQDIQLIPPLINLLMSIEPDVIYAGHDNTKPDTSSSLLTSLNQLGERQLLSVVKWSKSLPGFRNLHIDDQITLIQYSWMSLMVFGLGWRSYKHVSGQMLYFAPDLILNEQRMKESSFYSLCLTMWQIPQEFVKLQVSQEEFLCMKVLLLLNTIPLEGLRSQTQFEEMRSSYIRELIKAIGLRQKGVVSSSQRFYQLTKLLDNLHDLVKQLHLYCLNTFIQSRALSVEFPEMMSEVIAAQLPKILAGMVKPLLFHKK

[5] = tested on: PR / pPRE-luciferase in T47D cells; experiment: Luciferase assay for nPR activation; type: cell-based, human; conditions: 24 h
Description: T47D cells were grown in phenol-free medium, and cells were trypsinized and plated in 24-well plate (50 000 cells/well). Incubation of cells with the pPRE-luciferase plasmid (100 ng/well, construct provided by Dr. Ken Korach, NIEHS, NIH), RSV-β-galactosidase (100 ng/well, provided by Dr. William T. Beck, University of Illinois at Chicago), and Lipofectamine 2000 (1 μL per well, Invitrogen, Carlsbad, Calif.) in Opti-MEM was performed overnight at 37° C. inside a humidified incubator. The cells were treated with 1a, 2a, 3a, and 4a for an additional 24 h.
To measure luciferase production, cells were lysed in 100 μL GME buffer (25 mM glycylglycine at pH 7.8, 15 mM MgSO4, 4 mM EGTA, 1 mM dithiothreitol, and 1% Triton X-100) and lysates were added to assay buffer (GME buffer, 16.5 mM KPO4, 2.2 mM ATP, and 1.1 mM dithiothreitol). Luciferase substrate was injected followed by a 30 s read by a FLUOstar OPTIMA (BMG Lab Tech, Offenburg, Germany). LacZ activity (50 μL lysate) was measured from cleavage of ONPG. The sample results were normalized to β-galactosidase to account for transfection efficiency by dividing the sum of the luciferase activity by the sum of the β-galactosidase activity. Fold change was calculated by taking the luciferase value, dividing by the β-galactosidase activity, and then dividing by the solvent control, which was set equal to one. […]

[6] = tested on: PR(+) T47D and PR(−) MDA-MB-231 xenografted tumors; conditions: previously reported (ref. 19); cited from earlier work
[7] = taken from Caravan et al.; cited from earlier work

Row | Compound | tissue distribution of Gd(III) (percentage per gram of tissue) [1] | change in tumor CNR over preinjection levels [2] | CNR of PR(+) tumor compared to PR(−) tumor ([2]; 6 h postinjection) | cellular Gd(III) uptake [3] | also measured
1 | CCCCCCN1CCN(CC(=O)[O-])CCN(CC(=O)[O-])CCN(CC(=O)[O-])CC1.[Gd+3] [hexyl-DO3A-Gd(III)] | mainly end up in the liver and kidney | – | – | – | –
2 | {2,2′,2″-(10-(2-(((1-(5-(2-(10,13-Dimethyl-3-oxo-2,3,6,7,8,9,10,11,12,13,14,15,16,17-tetradecahydro-1H-cyclopenta[a]phenanthren-17-yl)-2-oxoethoxy)pentyl)-1H-1,2,3-triazol-4-yl)methyl)amino)-2-oxoethyl)-1,4,7,10-tetraazacyclododecane-1,4,7-triyl)triacetate}gadolinium [Compound 1a] | – | several-fold increase in CNR; also recorded: increased CNR by 2 h, but CNR had decreased by 6 h | significantly higher CNR | increased slightly after 1 h and then stabilized | CNR of PR(+) tumor compared to PR(−) tumor ([2]; 2 h postinjection): significantly higher CNR; fold change in CNR in the PR(+) tumors, percent higher than with ProGlo ([2]; 2 h time point, compared to preinjection CNR): 16%; RBA, fold less than that of progesterone [4]: about 100 fold
3 | {2,2′,2″-((10-((1-(5-(2-(10,13-Dimethyl-3-oxo-2,3,6,7,8,9,10,11,12,13,14,15,16,17-tetradecahydro-1H-cyclopenta[a]phenanthren-17-yl)-2-oxoethoxy)pentyl)-1H-1,2,3-triazol-4-yl)methyl)-1,4,7,10-tetraazacyclododecane-1,4,7-triyl)triacetate}gadolinium [Compound 2a] | – | slow increase in CNR over time | significantly higher CNR | time-dependent accumulation | PRE-mediated transcription (luciferase activity) [5]: lowest efficacy
4 | DO3A-Gd(III) | mainly end up in the liver and kidney | – | – | – | tumor CNR after injection [6]: only minimal increases in CNR over time
5 | CC(O)CN1CCN(CC(=O)[O-])CCN(CC(=O)[O-])CCN(CC(=O)[O-])CC1.[Gd+3] (centres unmarked) [Prohance] | – | – | – | – | Relaxivity [7]: 3.7* mM^−1s^−1
